The source of these data is patent publication US9255106B2, “Substituted [1,2,4]triazolo[4,3-a]pyrazines as PARP-1 inhibitors” (SHANGHAI INSTITUTE OF MATERIA MEDICA, CHINESE ACADEMY OF …, priority 2012, dated 2016).

pIC50: −log10 of the molar value. Marks after values point to notes of the source that are not given here.

Data set [1] concerns Capan-1. In words: Inhibition of tumor cell proliferation, Capan-1. To be noted: Homo sapiens.
For data set [2], the system named is U87-MG. Briefly: Inhibition of tumor cell proliferation, U87-MG. Particulars: Homo sapiens, U-87 MG.
Data set [3] relates to OVCAR-8. Briefly: Inhibition of tumor cell proliferation, OVCAR-8. To be noted: Homo sapiens.
For data set [4], the system named is MDA-MB-436 human breast cancer. In words: Antitumor activity in vivo, subcutaneously transplanted tumor in MDA-MB-436 human breast cancer nude mice. To be noted: for TV (mean ± SD) d0: d0 (at grouping); for RTV (mean ± SD) / T/C (%) / TV (mean ± SD) d21 / number of animals in which tumor regressed: d21; for number of animals in which tumor regressed: 6 animals. As to the method: A tumor tissue in vigorous growing period was cut into about 1.5 mm^3, and inoculated subcutaneously into right armpit of nude mice under a sterile condition. The diameter of subcutaneous transplant tumor in nude mice was measured by vernier caliper. When the tumor grew to 100-200 mm^3, the animals were randomly grouped. […] Solvent control group was administered saline in same volume. During the whole experiment, the tumor diameter was measured twice a week, while the body weight of mice was weighed simultaneously. The formula to calculate tumor volume (TV) was TV=½*a*b^2, wherein a and b respectively referred to length and width. Relative tumor volume (RTV) was calculated according to the measurements, and the formula is RTV=Vt/V0, wherein V0 is the tumor volume measured when the mice were grouped (i.e. d0), and Vt is the tumor volume measured each time.

For data set [5], the system named is PC-3. In words: Inhibition of tumor cell proliferation, PC-3. Particulars: Homo sapiens.
For data set [6], the system named is V8 cell. In words: PARP1 inhibitory activity at cellular level (proliferation inhibition model). Particulars: read-out: PARP1 inhibitory activity at cellular level (%).
Data set [7] deals with U251. In words: Inhibition of tumor cell proliferation, U251. To be noted: Homo sapiens, U-251.
For data set [8] the following is noted: in vivo; cited from earlier work.

The pIC50 is the negative decadic logarithm of the IC50, by convention in mol/L. For orientation: bioavailability means dose-corrected exposure relative to a reference, in per cent.

For the compound `CC1CN(C(=O)c2cc(Cc3n[nH]c(=O)c4ccccc34)ccc2F)Cc2nnc(C(F)(F)F)n21` (racemic) [Compound S3], the pIC50 in data set [1] is 8.12. The compound further showed a pIC50 in data set [2] of 6.64. In addition, the pIC50 in data set [3] is 4.98. Besides, in data set [4] (25 mg/kg, po, qd × 21), the “TV (mean ± SD) d0” value is 127 ± 30 mm^3, the “RTV (mean ± SD)” value is listed as 1.40 ± 0.71**, the “T/C (%)” value turned out to be 9.80% and the “TV (mean ± SD) d21” value was determined as 165 ± 57 mm^3. In addition, the “number of animals in which tumor regressed” value in data set [4] (25 mg/kg, po, qd × 21) is reported as 3. Further, in data set [4] (100 mg/kg), the “tumor outcome” value is “the tumor completely disappeared”. Moreover, the side effects result in data set [4] (100 mg/kg and 25 mg/kg, po, qd × 21) was “no significant side effects”. Besides, in data set [4] (100 mg/kg, po, qd × 21), the “TV (mean ± SD) d0” value stood at 128 ± 36 mm^3, the “RTV (mean ± SD)” value was 0.08 ± 0.04**, the “T/C (%)” value was determined as 0.59% and the “TV (mean ± SD) d21” value stood at 11 ± 7 mm^3. For the same compound, the “number of animals in which tumor regressed” value in data set [4] (100 mg/kg, po, qd × 21) was 1. For the same compound, in data set [5], the pIC50 is 6.00. Moreover, in data set [6], the inhibition at 0.0016 µM was -3.11%, the inhibition at 0.008 µM was 33.1%, the inhibition at 0.04 µM was 61.2% and the inhibition at 0.2 µM came out at 70.1%. Moreover, the inhibition at 1 µM in data set [6] stood at 74.4%.
For `O=C(c1cc(Cc2n[nH]c(=O)c3ccccc23)ccc1F)N1CCN(C(=O)C2CC2)CC1` [AZD2281, olaparib, reference compound], the pIC50 in data set [1] is 6.14. This compound had a pIC50 in data set [7] of 5.92. Besides, the pIC50 in data set [2] was 5.53. This compound also gave a pIC50 in data set [3] of 4.91. In data set [8], the bioavailability was < 15% and the half-life time was < 1 h. Further, in data set [4] (100 mg/kg, po, qd × 21), the “TV (mean ± SD) d0” value was 127 ± 37 mm^3, the “RTV (mean ± SD)” value is listed as 0.95 ± 0.78**, the “T/C (%)” value is given as 6.65% and the “TV (mean ± SD) d21” value is on record as 120 ± 118 mm^3. The negative logarithm of the IC50 (pIC50) in data set [5] was 5.41.
Turning to `CC1c2nnc(C(F)(F)F)n2CCN1C(=O)c1cc(Cc2n[nH]c(=O)c3ccccc23)ccc1F` (centres unmarked) [Compound S4], in data set [6], the inhibition at 0.0016 µM was -1.36%, the inhibition at 0.008 µM was 8.66%, the inhibition at 0.04 µM amounted to 53.1% and the inhibition at 0.2 µM turned out to be 75.5%. Besides, the inhibition at 1 µM in data set [6] worked out at 75.7%.
Consider `CC1c2nnc(C(F)(F)F)n2C(C)CN1C(=O)c1cc(Cc2n[nH]c(=O)c3ccccc23)ccc1F` (centres unmarked) [Compound S5], for which, in data set [6], the inhibition at 0.0016 µM was -5.06%, the inhibition at 0.008 µM was -3.01%, the inhibition at 0.04 µM worked out at 23.5% and the inhibition at 0.2 µM came out at 63.8%. Moreover, in data set [6], the inhibition at 1 µM stood at 73.5%.
The corresponding values for `COC1CN(C(=O)c2cc(Cc3n[nH]c(=O)c4ccccc34)ccc2F)Cc2nnc(C(F)(F)F)n21` (centres unmarked) [Compound S10] are 11.6%, 10.5%, 31.8%, 67.5% and 78.6%.
The like results for `CC1CN(C(=O)c2cc(Cc3n[nH]c(=O)c4ccccc34)ccc2F)Cc2nnc(C(F)F)n21` (centres unmarked) [Compound S17] were, in that order, 4.61%, 12.1%, 65.6%, 76.5% and 79.7%.
As to `CC1CN(C(=O)c2cc(Cc3n[nH]c(=O)c4ccccc34)ccc2F)Cc2nnc(CF)n21` (centres unmarked) [Compound S18], in data set [6], the inhibition at 0.0016 µM was determined as 7.63%, the inhibition at 0.008 µM was 54.1%, the inhibition at 0.04 µM stood at 77% and the inhibition at 0.2 µM turned out to be 77%. The inhibition at 1 µM in data set [6] was 78.4%.
With `CC1c2nnc(CF)n2C(C)CN1C(=O)c1cc(Cc2n[nH]c(=O)c3ccccc23)ccc1F` (centres unmarked) [Compound S19], in data set [6], the inhibition at 0.0016 µM worked out at 2.09%, the inhibition at 0.008 µM was -2.17%, the inhibition at 0.04 µM came to 3.32% and the inhibition at 0.2 µM turned out to be 0.4%. Also, the inhibition at 1 µM in data set [6] came out at 0.69%.
